Experimental data published in ChEMBL document CHEMBL1201862, “PubChem BioAssay data set” (2004).
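Assay format: 96-well plates, 48-hour exposure. At the GI50, growth is halved.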 The source made the active and inactive calls. No stated cut-off is given here; in the data, active = GI50 up to about 1.1 µM and inactive = higher.

Tests used:
Assay in all cases: NCI anticancer screen, dose series, 48 h
HOP-18 = test system: HOP-18
SNB-78 = test system: SNB-78
KM-20L2 = test system: KM-20L2
M19-MEL = test system: M19-MEL
LXFL 529 = test system: LXFL 529
XF498 = test system: XF498
DMS-273 = test system: DMS-273
RXF 631 = test system: RXF 631
BT-549 = test system: BT-549

Measured: GI50

CC1(C)C2CCC3(OCCO3)C1C(O)C2 (stereo not drawn)
inactive: HOP-18 > 100 µM | SNB-78 > 100 µM | KM-20L2 > 100 µM | M19-MEL > 100 µM | LXFL 529 > 100 µM | XF498 > 100 µM | DMS-273 > 100 µM | RXF 631 > 100 µM

Cn1c2c(c3ccccc31)CCN(CCCCN1CCCCC1)C2=O
inactive: HOP-18 > 100 µM | SNB-78 43.1 µM | KM-20L2 > 100 µM | M19-MEL 60.1 µM | LXFL 529 > 100 µM | XF498 > 100 µM | DMS-273 > 100 µM | RXF 631 > 100 µM

Clc1ccc2c(c1)CC1C[N+]3=C(CCCCC3)C1=C2 (stereo not drawn)
inactive: BT-549 26.5 µM

O=C1CN(c2ccccc2)C(=O)C1C(=O)Nc1ccc(Cl)c(Cl)c1 (stereo not drawn)
inactive: KM-20L2 4.41 µM | M19-MEL 1.77 µM | LXFL 529 1.65 µM | DMS-273 3.1 µM | RXF 631 3.59 µM

CCOC(=O)c1nc2cc(C(F)(F)F)ccc2nc1Oc1ccc(F)cc1
inactive: BT-549 > 100 µM

N#CC(=N)c1ncn(-c2ccccc2N)c1N
inactive: BT-549 > 100 µM

Cc1cc2c(C(C)C)c(O)c(O)c(/C=N/c3ccccc3)c2c(O)c1-c1c(C)cc2c(C(C)C)c(O)c(O)c(/C=N/c3ccccc3)c2c1O
inactive: KM-20L2 > 100 µM | M19-MEL > 100 µM | LXFL 529 > 100 µM | XF498 > 100 µM | DMS-273 > 100 µM

CCOC(=O)CC(NC(=O)c1ccc(/N=N/N(C)C)cc1)C(=O)OCC (stereo not drawn)
inactive: M19-MEL > 100 µM | LXFL 529 > 100 µM | DMS-273 > 100 µM

O=C1NC2(CCCCC2)C2CCCCCC12 (stereo not drawn)
inactive: SNB-78 > 100 µM | KM-20L2 > 100 µM | LXFL 529 > 100 µM | XF498 > 100 µM | RXF 631 > 100 µM

COc1nc(N)nc2nc[nH]c12
inactive: BT-549 232 µM | HOP-18 360 µM | SNB-78 287 µM | KM-20L2 > 500 µM | M19-MEL > 500 µM | LXFL 529 > 800 µM | XF498 279 µM | DMS-273 430 µM | RXF 631 647 µM

Cc1ccc([N+](=O)[O-])cc1S(=O)(=O)Nc1ccc(C2=NNC(c3cccs3)C2)cc1 (stereo not drawn)
inactive: BT-549 23.2 µM

C1CCC2(CC1)O[C@@H]1[C@@H](O2)[C@@H](O[C@H]2O[C@@H]3COC4(CCCCC4)O[C@H]3[C@@H]3OC4(CCCCC4)O[C@@H]23)O[C@@H]2COC3(CCCCC3)O[C@@H]12
inactive: BT-549 > 100 µM

Fc1c(F)c(F)c(CSc2nc3ccccc3[nH]2)c(F)c1F
inactive: BT-549 > 100 µM

c1ccc(/N=C2/SC3=Nc4cccc5cccc(c45)N3/C2=N/c2ccccc2)cc1
inactive: BT-549 > 100 µM

COc1ccc(N2C(=O)C3C=CC(n4[nH]c(=O)n(Cc5ccccc5)c4=O)CC3C2=O)cc1 (stereo not drawn)
inactive: HOP-18 > 100 µM | SNB-78 > 100 µM | KM-20L2 > 100 µM | M19-MEL > 100 µM | LXFL 529 > 100 µM | XF498 > 100 µM | DMS-273 > 100 µM

COc1ccc2c(C)cc(N/N=C/c3sccc3C)nc2c1
inactive: BT-549 13.1 µM

COc1cc2c(cc1OC)C(Cl)C(c1cc(OC)c(OC)c(OC)c1)=C2Cl (stereo not drawn)
inactive: HOP-18 14.7 µM | SNB-78 12.2 µM | KM-20L2 17.9 µM | M19-MEL 14.8 µM | LXFL 529 11.5 µM | DMS-273 16.5 µM | RXF 631 18.8 µM

CCOC1=C2N=C(Cc3ccc(F)cc3)NC2C(=O)c2ccccc21 (stereo not drawn)
inactive: SNB-78 69 µM | KM-20L2 40.3 µM | M19-MEL 9.44 µM | LXFL 529 25.5 µM | XF498 > 10 µM | DMS-273 9.71 µM | RXF 631 15.1 µM

CCOC(=O)CNC(=O)C(CCC(=O)N(C)O)NC(=O)CCC(N)C(=O)O (stereo not drawn)
inactive: BT-549 > 100 µM

NC1(C(=O)O)CCc2ccc(N(CCCl)CCCl)cc2C1 (stereo not drawn)
inactive: HOP-18 > 100 µM | KM-20L2 > 100 µM | M19-MEL 85.5 µM | XF498 43.1 µM | DMS-273 38.8 µM

COC(=O)c1cccc(C(=O)OC)c1
inactive: HOP-18 > 100 µM | SNB-78 > 100 µM | LXFL 529 > 100 µM | XF498 > 100 µM | DMS-273 > 100 µM
